Patent US20110009435A1, “HETERO BICYCLIC CARBOXAMIDE DERIVATIVES AND THEIR PHARMACEUTICAL USE AND COMPOSITIONS” (Pfizer, Inc., priority 2007, published 2011)

How the values were obtained:
[1] = molecular target: T1, Human recombinant MMP-2 (Homo sapiens, UniProt P08253); assay: In vitro MMP inhibition assay, MMP-2 (fluorogenic peptide substrate cleavage, Ki); format: biochemical; details: human MMP-2, full length (FL); read-out: hMMP Ki 02/FL
T1 construct: made in house; host or cells: MMP-2-transfected p2AHT2 cells
T1 sequence (P08253 110-660): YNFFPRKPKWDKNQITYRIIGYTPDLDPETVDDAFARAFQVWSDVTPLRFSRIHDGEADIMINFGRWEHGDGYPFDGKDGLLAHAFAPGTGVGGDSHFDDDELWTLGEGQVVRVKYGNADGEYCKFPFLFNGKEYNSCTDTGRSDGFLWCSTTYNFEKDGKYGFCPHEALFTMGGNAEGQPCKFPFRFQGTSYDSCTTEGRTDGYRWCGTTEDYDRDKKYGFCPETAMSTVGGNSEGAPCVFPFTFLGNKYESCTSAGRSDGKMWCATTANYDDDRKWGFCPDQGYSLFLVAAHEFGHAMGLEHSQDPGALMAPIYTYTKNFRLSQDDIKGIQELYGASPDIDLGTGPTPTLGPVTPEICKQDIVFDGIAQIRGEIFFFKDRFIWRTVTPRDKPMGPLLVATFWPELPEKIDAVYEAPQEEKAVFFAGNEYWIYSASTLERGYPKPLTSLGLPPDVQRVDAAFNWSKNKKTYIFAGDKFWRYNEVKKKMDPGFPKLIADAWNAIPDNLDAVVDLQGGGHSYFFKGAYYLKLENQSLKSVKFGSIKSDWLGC
Experimental: (§1) Matrix Metalloproteinase inhibitor compounds were analyzed in in vitro MMP Inhibition assays to determine their ability to inhibit the MMP cleavage of peptide substrates. Inhibition constants (Ki) were calculated from the assayed compound-MMP interactions.
(§2) Human recombinant MMP-1, MMP-2, MMP-3, MMP-7, MMP-9, MMP-12, MMP-13, MMP-14 and MMP-15 were used in these assays. The enzymes are prepared following known laboratory procedures. Protocols for the preparation and use of these enzymes are available in the scientific literature. See, e.g., Enzyme Nomenclature (Academic Press, San Diego, Calif., 1992) and the citations therein. See also Frije et al., J. Biol. Chem., 26(24), 16766-73 (1994).
(§3) The MMP-1 proenzyme may be purified from spent media of MMP-1-transfected HT-1080 cells and the protein purified on a zinc chelating column. The MMP-2 proenzyme may be purified by gelatin Sepharose chromatography from MMP-2-transfected p2AHT2 cells. […]
(§4) The inhibitors are analyzed using a single low enzyme concentration with a single substrate concentration fixed at or below the Km. […] Apparent inhibitory constants are determined by non-linear regression of reaction velocity as a function of inhibitor and enzyme concentration using Morrison's equation, as described by Kuzmic, Anal. Biochem. 286, 45-50 (2000). […]

[2] = molecular target: T2, Human recombinant MMP-1 (Homo sapiens, UniProt P03956); assay: In vitro MMP inhibition assay, MMP-1 (fluorogenic peptide substrate cleavage, Ki); format: biochemical; details: human MMP-1, full length (FL); read-out: hMMP Ki 01/FL
T2 construct: made in house; host or cells: MMP-1-transfected HT-1080 cells
T2 sequence (P03956 100-469): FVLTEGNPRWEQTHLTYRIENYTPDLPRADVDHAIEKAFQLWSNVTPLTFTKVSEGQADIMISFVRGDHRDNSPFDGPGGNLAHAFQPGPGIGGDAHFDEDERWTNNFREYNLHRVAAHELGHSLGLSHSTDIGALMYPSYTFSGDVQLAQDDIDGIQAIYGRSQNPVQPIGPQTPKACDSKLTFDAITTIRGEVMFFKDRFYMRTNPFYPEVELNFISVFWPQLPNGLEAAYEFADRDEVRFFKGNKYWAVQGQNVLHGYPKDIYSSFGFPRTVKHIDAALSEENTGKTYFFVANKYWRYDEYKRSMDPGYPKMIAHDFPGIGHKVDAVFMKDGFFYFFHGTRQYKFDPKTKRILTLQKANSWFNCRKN
Experimental: as §1, §2, §3, §4

Question: How did the Ki [1] turn out when COc1cccc(CNC(=O)c2nc3ccc(F)c(OCCC4CCN(C(=O)CO)CC4)c3c(=O)[nH]2)c1 [Example 34, 6-fluoro-5-[2-(1-glycoloylpiperidin-4-yl)ethoxy]-N-(3-methoxybenzyl)-4-oxo-3,4-dihydroquinazoline-2-carboxamide] was run?
Answer: 5.65 µM

Question: What about the Ki [2] of the same molecule?
Answer: > 10 µM
